The target of data set [1] is T1, Histamine H3 receptor (Rattus norvegicus, UniProt Q9QYN8). The data set can be described thus: Displacement of [3H]NAMH from rat full length histamine H3 receptor expressed in rat C6 cells. The format is cell-based. To be noted: read-out: Ki. On the technique in general: Loss of bound radioactivity is the signal in a displacement assay; it reports binding, not function.

Data set [2] addresses T2, Alpha-2C adrenergic receptor (Homo sapiens, UniProt P18825).
T2 sequence (P18825 whole entry): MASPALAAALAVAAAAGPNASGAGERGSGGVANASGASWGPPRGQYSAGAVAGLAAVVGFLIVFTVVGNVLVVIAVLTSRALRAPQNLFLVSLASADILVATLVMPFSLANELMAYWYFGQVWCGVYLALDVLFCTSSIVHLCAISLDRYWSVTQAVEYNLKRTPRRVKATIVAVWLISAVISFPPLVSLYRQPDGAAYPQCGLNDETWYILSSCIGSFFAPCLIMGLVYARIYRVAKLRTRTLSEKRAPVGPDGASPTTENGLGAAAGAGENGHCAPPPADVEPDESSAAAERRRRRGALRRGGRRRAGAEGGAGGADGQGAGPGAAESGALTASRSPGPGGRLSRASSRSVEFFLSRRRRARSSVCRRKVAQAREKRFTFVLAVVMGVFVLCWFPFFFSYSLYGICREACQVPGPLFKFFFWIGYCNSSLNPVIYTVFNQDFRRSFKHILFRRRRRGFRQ
The data set can be described thus: Displacement of [3H]rauwolscine from human adrenergic alpha 2C4 receptor expressed in mouse LTK- cells. Type of data set: cell-based.

The target of data set [3] is T3, Androgen receptor (Homo sapiens, UniProt P10275).
T3 sequence (P10275 whole entry): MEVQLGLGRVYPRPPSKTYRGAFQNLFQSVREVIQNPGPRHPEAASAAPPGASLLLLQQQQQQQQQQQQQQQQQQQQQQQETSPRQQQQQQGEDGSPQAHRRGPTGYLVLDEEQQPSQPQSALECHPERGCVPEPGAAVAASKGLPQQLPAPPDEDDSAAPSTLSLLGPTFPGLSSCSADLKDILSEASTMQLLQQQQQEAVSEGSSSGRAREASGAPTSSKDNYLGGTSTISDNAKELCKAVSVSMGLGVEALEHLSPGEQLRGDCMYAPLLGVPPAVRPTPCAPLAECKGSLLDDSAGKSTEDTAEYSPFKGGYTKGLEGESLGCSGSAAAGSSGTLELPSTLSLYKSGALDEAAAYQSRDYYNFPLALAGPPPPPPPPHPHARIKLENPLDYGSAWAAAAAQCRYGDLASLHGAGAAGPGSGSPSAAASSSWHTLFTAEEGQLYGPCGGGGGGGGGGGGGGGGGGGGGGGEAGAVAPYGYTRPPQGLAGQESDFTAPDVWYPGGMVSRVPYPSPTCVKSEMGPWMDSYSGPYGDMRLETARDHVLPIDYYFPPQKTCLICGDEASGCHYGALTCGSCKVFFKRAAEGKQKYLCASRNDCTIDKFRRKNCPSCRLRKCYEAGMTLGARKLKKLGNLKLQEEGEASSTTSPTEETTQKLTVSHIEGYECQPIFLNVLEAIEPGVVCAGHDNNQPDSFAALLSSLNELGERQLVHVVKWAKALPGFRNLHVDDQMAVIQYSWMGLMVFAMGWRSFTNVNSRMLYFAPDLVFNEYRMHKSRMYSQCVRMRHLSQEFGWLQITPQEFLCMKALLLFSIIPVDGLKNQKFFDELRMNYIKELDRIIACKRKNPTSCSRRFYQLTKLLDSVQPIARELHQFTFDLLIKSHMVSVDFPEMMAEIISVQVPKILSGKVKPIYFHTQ
The data set can be described thus: Binding affinity at androgen receptor.

Data set [4] is described as follows: Binding affinity at cholinergic receptor.
In data set [5] the target is T4, Muscarinic acetylcholine receptor M1 (Homo sapiens, UniProt P11229).
T4 sequence (P11229 whole entry): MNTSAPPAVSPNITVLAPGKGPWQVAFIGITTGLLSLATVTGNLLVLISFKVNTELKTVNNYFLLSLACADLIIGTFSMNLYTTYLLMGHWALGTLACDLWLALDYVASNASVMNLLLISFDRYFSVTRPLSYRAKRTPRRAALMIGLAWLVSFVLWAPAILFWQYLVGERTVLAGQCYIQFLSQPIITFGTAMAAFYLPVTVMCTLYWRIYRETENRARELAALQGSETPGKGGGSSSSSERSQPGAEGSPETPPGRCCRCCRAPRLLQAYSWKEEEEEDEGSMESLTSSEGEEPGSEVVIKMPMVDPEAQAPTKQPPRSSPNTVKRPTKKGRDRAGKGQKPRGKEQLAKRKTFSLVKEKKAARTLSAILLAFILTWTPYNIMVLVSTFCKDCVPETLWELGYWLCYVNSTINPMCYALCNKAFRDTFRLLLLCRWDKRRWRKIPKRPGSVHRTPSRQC
Briefly: Binding affinity at muscarinic M1 receptor.

The target in data set [6] is T5, Histamine H3 receptor (Homo sapiens, UniProt Q9Y5N1). Briefly: Antagonist activity at H3 receptor assessed as inhibition of forskolin-induced cAMP release by SPA. The format is functional.
The target in data set [7] is Histamine H2 receptor (Homo sapiens, UniProt P25021). The data set can be described thus: Displacement of [3H]tiotidine from human histamine H2 receptor. The note with it: read-out: Ki.
The test system of data set [8] is Phospholipidosis. Briefly: In vitro phospholipidosis index at 6.25 uM compared to amiodarone at 10 uM. The note with it: hepatocytes. The format is ADME, cell-based, Hepatocyte.
Data set [9] concerns Mus musculus. Briefly: Increase in learning and memory performance in mouse at 0.01 mg/kg, ip after 24 hrs by passive avoidance test. Also on record: dose 0.01 mg/kg. Type of data set: functional, organism-based.
Data set [10] can be described thus: Inhibition of CYP enzyme. The format is ADME.
Data set [11] addresses Histamine H4 receptor (Homo sapiens, UniProt Q9H3N8). The data set can be described thus: Displacement of [3H]histamine from human histamine H4 receptor expressed in HEK cells. Type of data set: cell-based, HEK293. The note with it: read-out: Ki.
For data set [12], the target named is T5, Histamine H3 receptor. The data set can be described thus: Antagonist activity at H3 receptor assessed as inhibition of [35S]gammaGTP binding relative to control.
The target in data set [13] is T5, Histamine H3 receptor. The data set can be described thus: Displacement of [3H]NAMH from human full length histamine H3 receptor expressed in rat C6 cells. The format is cell-based.
The nature of data set [14]: Selectivity ratio for human adrenergic alpha 2C4 receptor over human H3 receptor.
In data set [15] the target is T1, Histamine H3 receptor. The data set can be described thus: Displacement of [3H]NAMH from histamine H3 receptor in rat cortex. To be noted: read-out: Ki.
The target in data set [16] is T5, Histamine H3 receptor. Briefly: Antagonist activity at human full length histamine H3 receptor expressed in HEK293 cells assessed as inhibition of (R)-alpha-methylhistamine-induced intracellular calcium release by FLIPR. Type of data set: functional, cell-based. On the technique in general: Calcium assays in cells follow changes in intracellular calcium, usually with a dye or a luminescent sensor.

Data set [17] in a line: Binding affinity at serotonin receptor.
The subject of data set [18] is Rattus norvegicus. Briefly: Toxicity in rat assessed as CNS side effects at 1.3 to 13 mg/kg, ip. Type of data set: organism-based. Also on record: dose 1.3-13 mg/kg, route intraperitoneal. The note with it: in vivo.
The nature of data set [19]: Half life in rat. Type of data set: ADME, organism-based. The note with it: in vivo.

The record followed here is ChEMBL document CHEMBL1157348, “The alkaloid conessine and analogues as potent histamine H3 receptor antagonists” (J Med Chem, 2008).

Activity calls are given as the source filed them. The rule behind the calls is not given here.

T5 sequence (Q9Y5N1 whole entry): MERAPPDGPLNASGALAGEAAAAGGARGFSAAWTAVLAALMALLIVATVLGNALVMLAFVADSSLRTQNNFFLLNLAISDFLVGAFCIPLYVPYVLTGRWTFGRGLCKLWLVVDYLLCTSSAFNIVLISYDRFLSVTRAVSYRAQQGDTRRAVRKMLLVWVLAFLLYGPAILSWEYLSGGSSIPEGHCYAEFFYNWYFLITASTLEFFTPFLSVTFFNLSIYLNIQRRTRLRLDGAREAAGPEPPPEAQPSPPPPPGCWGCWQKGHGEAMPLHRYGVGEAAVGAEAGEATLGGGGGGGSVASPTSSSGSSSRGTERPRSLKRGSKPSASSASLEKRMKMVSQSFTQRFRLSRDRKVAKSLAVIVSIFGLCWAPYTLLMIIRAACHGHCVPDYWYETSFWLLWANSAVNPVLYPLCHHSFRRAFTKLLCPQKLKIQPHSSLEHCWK
T1 sequence (Q9QYN8 whole entry): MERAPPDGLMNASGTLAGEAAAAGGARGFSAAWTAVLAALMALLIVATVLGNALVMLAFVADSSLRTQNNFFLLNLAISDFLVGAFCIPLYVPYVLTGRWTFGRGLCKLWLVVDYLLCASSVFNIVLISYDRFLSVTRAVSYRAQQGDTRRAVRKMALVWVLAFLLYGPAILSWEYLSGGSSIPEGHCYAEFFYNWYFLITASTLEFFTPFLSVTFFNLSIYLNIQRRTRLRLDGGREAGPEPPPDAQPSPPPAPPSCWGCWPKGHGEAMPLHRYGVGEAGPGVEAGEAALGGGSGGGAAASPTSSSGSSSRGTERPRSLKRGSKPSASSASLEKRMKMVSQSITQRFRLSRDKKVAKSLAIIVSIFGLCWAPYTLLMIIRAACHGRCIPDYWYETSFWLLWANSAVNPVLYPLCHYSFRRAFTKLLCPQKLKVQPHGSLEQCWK
Histamine H4 receptor, sequence (Q9H3N8 whole entry): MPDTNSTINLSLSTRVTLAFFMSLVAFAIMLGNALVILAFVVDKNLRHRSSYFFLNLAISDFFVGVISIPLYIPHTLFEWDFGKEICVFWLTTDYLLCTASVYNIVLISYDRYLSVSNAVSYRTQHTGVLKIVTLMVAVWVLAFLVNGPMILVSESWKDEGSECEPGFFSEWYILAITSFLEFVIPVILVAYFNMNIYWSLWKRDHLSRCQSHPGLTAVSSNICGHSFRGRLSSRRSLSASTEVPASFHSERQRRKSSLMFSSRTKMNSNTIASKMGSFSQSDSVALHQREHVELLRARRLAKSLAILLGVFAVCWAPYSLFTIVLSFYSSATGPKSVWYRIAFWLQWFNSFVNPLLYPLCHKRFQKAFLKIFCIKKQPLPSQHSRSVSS
Histamine H2 receptor, sequence (P25021 whole entry): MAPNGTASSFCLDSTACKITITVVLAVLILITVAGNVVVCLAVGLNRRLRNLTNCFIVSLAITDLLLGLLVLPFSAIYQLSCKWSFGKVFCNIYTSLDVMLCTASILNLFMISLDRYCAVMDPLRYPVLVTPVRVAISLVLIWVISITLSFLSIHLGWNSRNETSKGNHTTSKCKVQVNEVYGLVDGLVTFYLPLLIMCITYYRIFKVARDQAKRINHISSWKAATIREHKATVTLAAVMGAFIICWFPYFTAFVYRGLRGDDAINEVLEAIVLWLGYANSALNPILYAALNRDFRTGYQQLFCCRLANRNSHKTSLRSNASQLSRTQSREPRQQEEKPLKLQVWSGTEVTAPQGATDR

In general, Ki refers to a measure of affinity in units of concentration, obtained from inhibition or displacement. As a reminder, the Kb is the affinity of an antagonist, worked out from how it opposes an agonist. For orientation: IC50 means the concentration needed to halve the response being measured. The low end stands for greater potency in that assay, the high end for weaker potency in that assay. A word on the EC50: it is the concentration at which the effect is half-maximal. In general, half-life refers to how long it takes for the measured level to halve. Turning to `CN[C@@H](C(=O)N(C)[C@H]1CC[C@@]2(C)C(=CC[C@H]3[C@@H]4CC[C@@H]5[C@H](C)N(C)C[C@@]54CC[C@@H]32)C1)C(C)C`, the Ki is 2.57 nM in data set [1]; 77.6 nM in [2]; greater than 30000 nM in [3]; greater than 10000 nM in [4]; 11 nM in data set [5]; greater than 10000 nM in [7]. In addition, the Ki in data set [11] was greater than 10000 nM; in data set [13], 0.21 nM; in [15] it was 2.57 nM; in [17] it was greater than 10000 nM. Also, the Kb in data set [6] and in data set [16] was 4 nM in each case. Moreover, the Phospholipidosis_index in data set [8] worked out at 0.42. Besides, the result in data set [9] was Active. Moreover, the IC50 in [10] was greater than 10000 nM. Further, in [12], the EC50 came to 3.3 nM. For the same compound, in [14], the Selectivity ratio worked out at 370. In addition, the Activity entry in data set [18] is “Non-toxic”. Moreover, the half-life in data set [19] was 77 h.
